Like-named read-outs stand apart in the source and are kept apart here.
System: sessile microbial population (biofilm on stainless steel washers)
Experiment: time-kill biocidal efficacy, hybrid planktonic-sessile procedure: sessile population
Assay type: cell-based, natural mixed aerobic microbial population
Settings: 10 ppm Compound B, others equimolar; for Sessile, 20-24 h, % of Control / Sessile, 48-54 h, % of Control / Sessile, 120 h, % of Control / Sessile CFU/, 20-24 h / Sessile CFU/, 48-54 h / Sessile CFU/, 120 h / Sessile CFU/, Total / Sessile, Total, % of Control / activity at 10 ppm: exposure 110 minutes; for Sessile CFU/, 20-24 h / Sessile CFU/, 48-54 h / Sessile CFU/, 120 h / Sessile CFU/, Total: per washer; for reduction in the total sessile population: 110 minutes
Description: An experiment was conducted to assess biocidal effectiveness of Compounds A and B and their respective Compounds 13 and 1 anion analogs. Time-kill tests were conducted using a hybrid planktonic-sessile procedure which allowed assessment of biocidal effectiveness against both planktonic and sessile microbial populations. A natural mixed aerobic microbial population in samples collected from an operating cooling tower was used as inoculum for the test. Biocide test concentration for Compound B was 10 ppm. All other products were tested at the equivalent molar concentration. Biocide exposure was 110 minutes. The following procedure was used which generally followed the biocidal testing method of Walter, R. W. and Cooke, L. […] A New Multifunctional Biocide Which Enhances Corrosion Inhibition,” NACE Paper 410, 1997. A water sample was collected from a cooling tower that contained a natural mixed population of microorganisms that grew at different rates when plated on Petrifilm. The populations of cells that grew on Petrifilm in 20-24 hours, 48-54 hours and at 120 hours were treated as separate populations. […] The washers were allowed seven days to develop a biofilm on their surface. Prior to chemical treatment, 10 mL aliquots of the CTW were removed from the beaker and placed into individual exposure test tubes along with a single washer. Test compounds were then added to the individual tubes at equimolar concentrations. All exposure tests including untreated controls were conducted in triplicate (i.e., three washers in separate exposure tubes). After addition of the test compound, the tube was briefly mixed by mild vortexing and again occasionally throughout the exposure time. Washer sonication to release organisms not released by the chemical treatment: […], the washer was removed from the tube, dipped 10 times in Letheen broth, then placed into a 9 mL tube of sterile Butterfields buffer, and sonicated for 8 minutes. Determination of cell population removed from washers by sonication: After the tube with washer was sonicated, a 1 mL aliquot was plated onto petrifilm and a serial dilution in Butterfields Buffer was performed with each dilution being plated to petrifilm. Determination of colony forming units (CFU) at different incubation times: After plating the various solutions on Petrifilm, the films were incubated at 36° C. for the first 24 hours. At 20 hours the […] read and CFU were recorded. This population was defined as a fast growing population. The […] then incubated for additional time either at 36° C. or room temperature and read at 54 hours. This second population is in addition to the fast growth rate population and was defined as moderate growth rate organisms. Incubation was continued and the […] again after 120 hours. This third population was also treated as separate from the fast and moderate growth rate populations and is referred to as the slow growth rate population. As noted above, each compound was evaluated in triplicate with three separate washers and the results were averaged. Average CFU/mL values were used to calculate total planktonic test population (CFU/10 mL) and total sessile test population (CFU/washer) in each test system.

Row | Compound | Sessile, 20-24 h, % of Control (20-24 h incubation) [%] | Sessile, 48-54 h, % of Control (48-54 h incubation) [%] | Sessile, 120 h, % of Control (120 h incubation) [%] | Sessile CFU/, 20-24 h (20-24 h incubation) [CFU/] | Sessile CFU/, 48-54 h (48-54 h incubation) | Sessile CFU/, 120 h (120 h incubation) | Sessile CFU/, Total (total population) | Sessile, Total, % of Control (total population) [%] | reduction in the total sessile population [%] | activity at 10 ppm (20-24 h incubation, read-out: Sessile, 20-24 h, % of Control) [%] | activity at 10 ppm (48-54 h incubation, read-out: Sessile, 48-54 h, % of Control) [%] | activity at 10 ppm (110 min, total population, read-out: Sessile, Total, % of Control) [%] | activity at 10 ppm (120 h incubation, read-out: Sessile, 120 h, % of Control) [%]
1 | CCCCCCCCCCOCCCN.O=C(O)CC(O)(CC(=O)O)C(=O)O [Compound 1, 2-hydroxypropane-1,2,3-tricarboxylic acid salt of aminopropyloxydecane] | 104.9 | 4.4 | 38.7 | 234 | 36,000 CFU/ | 265,000 CFU/ | 301,000 CFU/ | 19.9 | – | – | – | – | –
2 | CCCCCCCCCCSCCN.Cl [Compound A, 2-(decylthio)ethanamine hydrochloride] | – | – | – | 405 | 360 CFU/ | 60,000 CFU/ | 60,800 CFU/ | – | 96 | 182 | 0.04 | 4 | 8.8
3 | CC(=O)O.CCCCCCCCCCOCCCN [Compound B, ethanoic acid salt of aminopropyloxydecane] | 92.8 | 6.0 | 37.7 | 207 | 49,200 CFU/ | 258,000 CFU/ | 307,000 CFU/ | 20.3 | 80 | – | – | – | –
